Data taken from US20220089575A1, “FARNESOID X RECEPTOR AGONISTS AND USES THEREOF” (Metacrine, Inc., priority 2017, published 2022).

target: T1, hFXR (Homo sapiens, UniProt Q96RI1); test: In Vitro FXR Assay (TK): TK-ECRE-luc reporter in transfected CV-1 cells; type: cell-based; settings: 18 hrs, luminescence, maximum efficacy of <25% of the Fexarmine control classified as '+'
T1 construct: expressed in transfected cells; host or cells: CV-1 cells
T1 sequence (Q96RI1 1-486): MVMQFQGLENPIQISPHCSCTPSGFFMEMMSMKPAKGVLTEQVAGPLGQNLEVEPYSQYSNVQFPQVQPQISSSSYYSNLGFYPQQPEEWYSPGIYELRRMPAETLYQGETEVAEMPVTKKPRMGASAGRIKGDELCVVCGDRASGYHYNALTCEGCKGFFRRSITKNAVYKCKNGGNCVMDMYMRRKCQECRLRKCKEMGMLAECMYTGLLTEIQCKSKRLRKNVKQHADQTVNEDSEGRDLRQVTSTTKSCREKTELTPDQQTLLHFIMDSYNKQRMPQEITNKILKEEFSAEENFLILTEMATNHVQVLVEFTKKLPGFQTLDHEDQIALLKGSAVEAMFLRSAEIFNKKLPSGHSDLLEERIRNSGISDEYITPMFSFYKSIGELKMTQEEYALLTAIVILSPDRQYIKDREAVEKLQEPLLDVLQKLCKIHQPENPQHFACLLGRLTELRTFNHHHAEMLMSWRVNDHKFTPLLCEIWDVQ
T1 sequence (P19793 1-462 partner): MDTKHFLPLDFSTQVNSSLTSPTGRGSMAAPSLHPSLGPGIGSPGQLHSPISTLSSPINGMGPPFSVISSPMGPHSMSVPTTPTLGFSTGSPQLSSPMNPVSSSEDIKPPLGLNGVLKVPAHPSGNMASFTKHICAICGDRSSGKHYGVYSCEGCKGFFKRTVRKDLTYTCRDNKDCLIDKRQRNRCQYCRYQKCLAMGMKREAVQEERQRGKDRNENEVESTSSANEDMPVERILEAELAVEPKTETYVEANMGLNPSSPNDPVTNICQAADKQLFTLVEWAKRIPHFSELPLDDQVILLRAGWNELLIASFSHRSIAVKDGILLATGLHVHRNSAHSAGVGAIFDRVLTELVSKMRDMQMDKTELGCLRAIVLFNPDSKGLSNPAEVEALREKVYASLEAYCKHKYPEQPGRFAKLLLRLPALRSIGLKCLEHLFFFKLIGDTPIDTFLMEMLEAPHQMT
Summary of the method: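 CV-1, transient co-transfection: hFXR + hRXR + TK-ECRE-luc + pCMX-YFP; charcoal-stripped serum. 18 h post-transfection, DMSO serial dilutions of cpd added; 18 h incubation; lysis, luminescence.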

| SMILES | EC50 [nM] |
| --- | --- |
| CCC(C)(O)CNC(=O)O[C@H]1CC[C@H](C(=O)N(C[C@H]2CC[C@H](c3ccc(OC)c(C)n3)CC2)c2cc(-c3coc(C4CC4)n3)ccn2)CC1 (stereo partly drawn) [Compound 6.69, trans-4-((4-(2-Cyclopropyloxazol-4-yl)pyridin-2-yl)((trans-4-(5-methoxy-6-methylpyridin-2-yl)cyclohexyl)methyl)carbamoyl)cyclohexyl (2-hydroxy-2-methylbutyl)carbamate] | ≤ 250 |
| COc1ccc([C@H]2CC[C@H](CN(c3cc(-c4coc(C5CC5)n4)ccn3)C(=O)[C@H]3CC[C@H](OC(=O)NCC(C)(C)O)CC3)CC2)nc1C [Compound 6.70, trans-4-((4-(2-Cyclopropyloxazol-4-yl)pyridin-2-yl)((trans-4-(5-methoxy-6-methylpyridin-2-yl)cyclohexyl)methyl)carbamoyl)cyclohexyl (2-hydroxy-2-methylpropyl)carbamate] | ≤ 250 |
| COc1ccc([C@H]2CC[C@H](CN(c3cc(-c4coc(C5CC5)n4)ccn3)C(=O)[C@H]3CC[C@H](OC(=O)NC(C)CO)CC3)CC2)nc1C (stereo partly drawn) [Compound 6.71, trans-4-((4-(2-Cyclopropyloxazol-4-yl)pyridin-2-yl)((trans-4-(5-methoxy-6-methylpyridin-2-yl)cyclohexyl)methyl)carbamoyl)cyclohexyl (1-hydroxypropan-2-yl)carbamate] | ≤ 250 |
| COc1ccc([C@H]2CC[C@H](CN(c3cc(-c4coc(C5CC5)n4)ccn3)C(=O)[C@H]3CC[C@H](OC(=O)NCC(C)O)CC3)CC2)nc1C (stereo partly drawn) [Compound 6.72, trans-4-((4-(2-Cyclopropyloxazol-4-yl)pyridin-2-yl)((trans-4-(5-methoxy-6-methylpyridin-2-yl)cyclohexyl)methyl)carbamoyl)cyclohexyl (2-hydroxypropyl)carbamate] | ≤ 250 |
| COc1ccc([C@H]2CC[C@H](CN(c3cc(-c4coc(C5CC5)n4)ccn3)C(=O)[C@H]3CC[C@H](OC(=O)NC(C)C(C)O)CC3)CC2)nc1C (stereo partly drawn) [Compound 6.73, trans-4-((4-(2-Cyclopropyloxazol-4-yl)pyridin-2-yl)((trans-4-(5-methoxy-6-methylpyridin-2-yl)cyclohexyl)methyl)carbamoyl)cyclohexyl (3-hydroxybutan-2-yl)carbamate] | ≤ 250 |
| CCN(CCO)C(=O)O[C@H]1CC[C@H](C(=O)N(C[C@H]2CC[C@H](c3ccc(OC)c(C)n3)CC2)c2cc(-c3coc(C4CC4)n3)ccn2)CC1 [Compound 6.74, trans-4-((4-(2-Cyclopropyloxazol-4-yl)pyridin-2-yl)((trans-4-(5-methoxy-6-methylpyridin-2-yl)cyclohexyl)methyl)carbamoyl)cyclohexyl ethyl(2-hydroxyethyl)carbamate] | ≤ 250 |
| COc1ccc([C@H]2CC[C@H](CN(c3cc(-c4coc(C(C)C)n4)ccn3)C(=O)[C@H]3CC[C@H](OC(=O)N4CC(S(C)(=O)=O)C4)CC3)CC2)nc1C [Compound 6.75, trans-4-((4-(2-Isopropyloxazol-4-yl)pyridine-2-yl)((trans-4-(5-methoxy-6-methylpyridin-2-yl)cyclohexyl)methyl)carbamoyl)cyclohexyl 3-(methylsulfonyl)azetidine-1-carboxylate] | ≤ 250 |
| COc1ccc([C@H]2CC[C@H](CN(c3cc(-c4coc(C5CC5)n4)ccn3)C(=O)[C@H]3CC[C@H](OC(=O)N4CC(OCCO)C4)CC3)CC2)nc1C [Compound 6.76, trans-4-((4-(2-Cyclopropyloxazol-4-yl)pyridine-2-yl)((trans-4-(5-methoxy-6-methylpyridin-2-yl)cyclohexyl)methyl)carbamoyl)cyclohexyl 3-(2-hydroxyethoxy)azetidine-1-carboxylate] | ≤ 250 |
| COc1ccc([C@H]2CC[C@H](CN(c3cc(-c4coc(C(C)C)n4)ccn3)C(=O)[C@H]3CC[C@H](OC(=O)N4CCN(C)CC4)CC3)CC2)nc1C [Compound 6.77, trans-4-((4-(2-Isopropyloxazol-4-yl)pyridine-2-yl)((trans-4-(5-methoxy-6-methylpyridin-2-yl)cyclohexyl)methyl)carbamoyl)cyclohexyl 4-methylpiperazine-1-carboxylate] | ≤ 250 |
| COc1ccc([C@H]2CC[C@H](CN(c3cc(-c4coc(C5CC5)n4)ccn3)C(=O)[C@H]3CC[C@H](OC(=O)N4CCNCC4)CC3)CC2)nc1C [Compound 6.78, trans-4-(4-(2-Cyclopropyloxazol-4-yl)pyridine-2-yl)((trans-4-(5-methoxy-6-methylpyridin-2-yl)cyclohexyl)methyl) carbamoyl)cyclohexylpiperazine-1-carboxylate] | 250 to 1000 |
| COc1ccc([C@H]2CC[C@H](CN(c3cc(-c4coc(C5CC5)n4)ccn3)C(=O)[C@H]3CC[C@H](OC(=O)NC4CCN(C)CC4)CC3)CC2)nc1C [Compound 6.79, trans-4-((4-(2-Cyclopropyloxazol-4-yl)pyridine-2-yl)((trans-4-(5-methoxy-6-methylpyridin-2-yl)cyclohexyl)methyl)carbamoyl)cyclohexyl (1-methylpiperidin-4-yl)carbamate] | ≤ 250 |
| COc1ccc([C@H]2CC[C@H](CN(c3cc(-c4coc(C5CC5)n4)ccn3)C(=O)[C@H]3CC[C@H](OC(=O)N[C@@H]4CCCN(C)C4)CC3)CC2)nc1C [Compound 6.80, trans-4-((4-(2-Cyclopropyloxazol-4-yl)pyridin-2-yl)((trans-4-(5-methoxy-6-methylpyridin-2-yl)cyclohexyl)methyl)carbamoyl)cyclohexyl ((R)-1-methylpiperidin-3-yl)carbamate] | ≤ 250 |
| CCN1CCN(C(=O)O[C@H]2CC[C@H](C(=O)N(C[C@H]3CC[C@H](c4ccc(OC)c(C)n4)CC3)c3cc(-c4coc(C5CC5)n4)ccn3)CC2)CC1 [Compound 6.81, trans-4-((4-(2-Cyclopropyloxazol-4-yl)pyridine-2-yl)((trans-4-(5-methoxy-6-methylpyridin-2-yl)cyclohexyl)methyl)carbamoyl)cyclohexyl 4-ethylpiperazine-1-carboxylate] | ≤ 250 |
| COc1ccc([C@H]2CC[C@H](CN(c3cc(-c4coc(C5CC5)n4)ccn3)C(=O)[C@H]3CC[C@H](OC(=O)N4CCN(C(C)C)CC4)CC3)CC2)nc1C [Compound 6.82, trans-4-((4-(2-Cyclopropyloxazol-4-yl)pyridine-2-yl)((trans-4-(5-methoxy-6-methylpyridin-2-yl)cyclohexyl)methyl)carbamoyl)cyclohexyl 4-isopropylpiperazine-1-carboxylate] | ≤ 250 |
| COc1ccc([C@H]2CC[C@H](CN(c3cc(-c4coc(C5CC5)n4)ccn3)C(=O)[C@H]3CC[C@H](OC(=O)N4CCOC(C)(C)C4)CC3)CC2)nc1C [Compound 6.83, trans-4-((4-(2-Cyclopropyloxazol-4-yl)pyridin-2-yl)((trans-4-(5-methoxy-6-methylpyridin-2-yl)cyclohexyl)methyl)carbamoyl)cyclohexyl 2,2-dimethylmorpholine-4-carboxylate] | ≤ 250 |
| COc1ccc([C@H]2CC[C@H](CN(c3cc(-c4coc(C5CC5)n4)ccn3)C(=O)[C@H]3CC[C@H](OC(=O)N4CC(C5COC5)C4)CC3)CC2)nc1C [Compound 6.84, trans-4-((4-(2-Cyclopropyloxazol-4-yl)pyridin-2-yl)((trans-4-(5-methoxy-6-methylpyridin-2-yl)cyclohexyl)methyl)carbamoyl)cyclohexyl 3-(oxetan-3-yl) azetidine-1-carboxylate] | ≤ 250 |
| CCc1nc(-c2ccnc(N(C[C@H]3CC[C@H](c4ccc(OC)c(C)n4)CC3)C(=O)[C@H]3CC[C@H](OC(=O)NCCO)CC3)c2)co1 [Compound 6.85, trans-4-((4-(2-Ethyloxazol-4-yl)pyridin-2-yl)((trans-4-(5-methoxy-6-methylpyridin-2-yl)cyclohexyl)methyl)carbamoyl)cyclohexyl (2-hydroxyethyl)carbamate] | ≤ 250 |
| COc1ccc([C@H]2CC[C@H](CN(c3cc(-c4coc(C5CC5)n4)ccn3)C(=O)[C@H]3CC[C@H](OC(=O)N(C)CC(C)(C)O)CC3)CC2)nc1C [Compound 6.86, trans-4-((4-(2-Cyclopropyloxazol-4-yl)pyridin-2-yl)((trans-4-(5-methoxy-6-methylpyridin-2-yl)cyclohexyl)methyl)carbamoyl)cyclohexyl (2-hydroxy-2-methylpropyl)(methyl)carbamate] | ≤ 250 |
| COc1ccc([C@H]2CC[C@H](CN(c3cc(-c4coc(C5CC5)n4)ccn3)C(=O)[C@H]3CC[C@H](OC(=O)N(C)CCO)CC3)CC2)nc1C [Compound 6.87, trans-4-((4-(2-Cyclopropyloxazol-4-yl)pyridin-2-yl)((trans-4-(5-methoxy-6-methylpyridin-2-yl)cyclohexyl)methyl)carbamoyl)cyclohexyl (2-hydroxyethyl)(methyl)carbamate] | ≤ 250 |
